Article PMC10249358, “Elucidation of Short Linear Motif-Based Interactions of the FERM Domains of Ezrin, Radixin, Moesin, and Merlin” (Biochemistry, 2023)
No end group written: not given here.

Key:
merlin FERM domain = molecular target: T1, merlin FERM domain (Homo sapiens, UniProt P35240); test: Direct binding fluorescence polarization (FP) assay, FITC-labeled probe peptides; conditions: FITC-labeled probe peptide 5 nM titrated with FERM domain, 20 mM HEPES pH 7.4, 150 mM NaCl, 0.05% Tween-20, 3 mM DTT, quadratic 1:1 fit, n = 3 technical repeats, N.B. within the concentration range tested
T1 construct: human merlin FERM (P35240; amino acids 22–312); His-GST (N, cleaved yes); made in house; host or cells: E. coli BL21(DE3)
T1 sequence (P35240 22-312): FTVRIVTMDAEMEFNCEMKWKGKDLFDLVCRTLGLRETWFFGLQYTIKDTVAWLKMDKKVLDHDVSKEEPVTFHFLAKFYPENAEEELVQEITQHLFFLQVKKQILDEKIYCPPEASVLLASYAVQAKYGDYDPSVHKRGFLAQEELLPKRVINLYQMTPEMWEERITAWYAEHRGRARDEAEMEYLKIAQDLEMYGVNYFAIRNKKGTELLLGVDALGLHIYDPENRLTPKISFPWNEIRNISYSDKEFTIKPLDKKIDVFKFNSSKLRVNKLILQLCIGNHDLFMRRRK
Description: (§1) For fluorescence polarization (FP) experiments of merlin FERM, the GST tag was removed using HRV3C protease by incubating the enzyme (100 units/10 mg protein) with protein overnight at 4 °C in the dialysis buffer (20 mM HEPES, pH 7.4, 150 mM NaCl, 0.05% Tween-20, and 3 mM DTT). The following day, the cleaved GST and the protease were removed using reverse Ni-IMAC, and the protein was concentrated to the working concentration. For FP experiments using moesin FERM, thrombin (Sigma) was used to cleave the GST tag from moesin FERM domain on GSH sepharose beads (Cytiva) and incubated overnight at 4 °C under gentle rotation. Next day, the beads were collected by gentle centrifugation, while the supernatant containing thrombin and moesin FERM domain was passed through a HiTrap benzamidine column (Cytiva). The protein was then eluted using a high salt (0.7–1 M NaCl) concentration. The buffer was then exchanged using the PD-10 desalting column (Cytiva) into FP buffer (20 mM HEPES, pH 7.4, 150 mM NaCl, 0.05% Tween-20, and 3 mM DTT).
(§2) Synthetic peptides were obtained at 95% purity (GeneCust) and were dissolved in FP buffer (described earlier). To obtain direct binding saturation data, a dilution series of moesin FERM domain was prepared using the FP buffer, and then an equal volume of 10 nM FITC-labeled peptide was added to each sample. After mixing, the FP signals were recorded using SpectraMax iD5 (Molecular Devices). Data were analyzed with GraphPad Prism version 7.0.0 for MacOS (GraphPad Software, San Diego, California USA). A quadratic equation for equilibrium binding[37] was used to fit the obtained data. [drawing 1] where pept indicates the probe peptide concentration (5 nM), X indicates the protein concentration, the constant A being the signal amplitude divided by probe peptide concentration, and B is the plateau value. Direct binding experiments were performed and analyzed the same way in the presence of saturating concentration of unlabeled peptides.

moesin FERM domain [1] = molecular target: T2, moesin FERM domain (Homo sapiens, UniProt P26038); test: Competitive FP assay, unlabeled peptide outcompetes FITC-labeled probe; format: binding
T2 construct: pGEX4T Moesin (P26038) FERM was a gift from Vijaya Ramesh (Addgene plasmid # 1163); GST (N, cleaved yes); made in house; host or cells: E. coli BL21(DE3)
T2 sequence (P26038 2-295 limits assumed): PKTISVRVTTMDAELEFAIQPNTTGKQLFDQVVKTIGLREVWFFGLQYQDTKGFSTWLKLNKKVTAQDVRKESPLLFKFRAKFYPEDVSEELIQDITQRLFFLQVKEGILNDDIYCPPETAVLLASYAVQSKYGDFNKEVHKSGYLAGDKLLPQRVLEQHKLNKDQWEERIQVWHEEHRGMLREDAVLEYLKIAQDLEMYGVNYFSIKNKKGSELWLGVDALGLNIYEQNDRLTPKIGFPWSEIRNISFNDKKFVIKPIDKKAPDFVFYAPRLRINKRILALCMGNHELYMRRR
Description: (§3) 25 μL of this premix was added to 25 μL of titrated target peptide. FP signals were determined as described earlier. […] All measurements were performed at least in triplicates.

radixin FERM domain = molecular target: T3, radixin FERM domain (Homo sapiens, UniProt P35241); test: as above; format: binding; conditions: competition FP, unlabeled peptide vs FITC-KIRREL3 probe; at least triplicates
T3 construct: radixin FERM (P35241; 5–295) domains were commercially synthesized; His-GST (N); made in house; host or cells: E. coli BL21(DE3)
T3 sequence (P35241 5-295): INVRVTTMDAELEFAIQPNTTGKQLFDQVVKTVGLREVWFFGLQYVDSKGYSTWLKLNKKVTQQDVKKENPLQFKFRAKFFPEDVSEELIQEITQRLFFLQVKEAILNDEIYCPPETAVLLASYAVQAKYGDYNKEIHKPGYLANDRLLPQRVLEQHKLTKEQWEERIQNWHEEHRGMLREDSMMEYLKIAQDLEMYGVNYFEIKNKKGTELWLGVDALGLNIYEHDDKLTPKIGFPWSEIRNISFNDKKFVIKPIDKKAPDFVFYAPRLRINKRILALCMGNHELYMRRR
Description: as §3

moesin FERM M285A/H288A = molecular target: T4, moesin FERM M285A/H288A (Homo sapiens, UniProt P26038, H288A/M285A); test: Direct binding FP assay with F3b-site mutant; conditions: direct binding of FITC-labeled probe; Table S7
T4 construct: we generated a mutant moesin FERM domain (M285A and H288A); GST (N, cleaved yes); made in house; host or cells: E. coli BL21(DE3)
T4 sequence (P26038 2-295 M285A/H288A limits assumed): as the sequence (P26038 2-295 limits assumed) above, with M284A, H287A counted along it
Description: Synthetic genes encoding for human merlin FERM (P35240; amino acids 22–312) and radixin FERM (P35241; 5–295) domains were commercially synthesized (ThermoFisher) and cloned into pETM33 using NcoI and EcoRI restriction sites. pGEX4T Moesin (P26038) FERM was a gift from Vijaya Ramesh (Addgene plasmid # 1163[27]). pGEX4T1 Ezrin (P15311) FERM domain was a kind gift from Volker Gerke.[28] Human NOP53-HA-pcDNA was a kind gift from Ronit Sarid.[29] The NOP53 gene was polymerase chain reaction (PCR)-amplified and cloned into CMV10 using HindIII and EcoRI. RRBP1-GFP was kindly provided by Alexander F. Palazzo.[30] HA-HIF1-alpha-pcDNA3 was a gift from William Kaelin (Addgene plasmid # 18949[31]). pcDNA3 LATS1 was a gift from Erich Nigg (Addgene plasmid # 41156[32]). […]
Synthetic peptides were obtained at 95% purity (GeneCust) and were dissolved in FP buffer (described earlier). […] After mixing, the FP signals were recorded using SpectraMax iD5 (Molecular Devices). Data were analyzed with GraphPad Prism version 7.0.0 for MacOS (GraphPad Software, San Diego, California USA). […] Direct binding experiments were performed and analyzed the same way in the presence of saturating concentration of unlabeled peptides.
To validate the models on the receptor side, we generated a mutant moesin FERM domain (M285A and H288A) and determined the effect on the affinity. […]

moesin FERM domain [2] = molecular target: T2, moesin FERM domain; test: Direct binding fluorescence polarization (FP) assay, FITC-labeled probe peptides; conditions: FITC-labeled probe peptide 5 nM titrated with FERM domain, 20 mM HEPES pH 7.4, 150 mM NaCl, 0.05% Tween-20, 3 mM DTT, quadratic 1:1 fit, n = 3 technical repeats
Description: as §1, §2

moesin FERM domain [3] = molecular target: T2, moesin FERM domain; test: Direct binding FP in the presence of saturating concentration of unlabeled competing peptide
Description: as §2
We next explored the interplay between the F3a and F3b ligands by determining the affinity of FITC-labeled model peptides in the presence of high concentrations of the competing ligands (Figure 6A,B). […] The asymmetric competition could potentially be explained by an allosteric model where binding to the F3a site induces a conformational change of the protein that reduces the affinity for F3b ligands.

[4] = competitive FP using FITC-KIRREL3_637–652 as probe, Figure 4G, read-out: KD' (moesin FERM, KIRREL3 and TBX4 peptide variants)
[5] = competitive FP using WT FITC-labeled ZNF622 as probe, Figure 5D, read-out: KD' (moesin FERM, ZNF622 peptide variants)
[6] = direct binding FP in presence of excess unlabeled KIRREL3 (80 μM), Figure 6E, read-out: KD of FITC-labeled probe for moesin FERM, saturating peptide KIRREL3
[7] = direct binding FP in presence of excess unlabeled TBX4 (80 μM), Figure 6F, read-out: KD of FITC-labeled probe for moesin FERM, saturating peptide TBX4
[8] = moesin FERM, unlabeled peptide at about 100 times KD (80–150 μM)

How did the “KD, merlin FERM domain” value (merlin FERM domain) turn out when SYSVQTMETVPYQPFP [TBX4_428–443] was run?
Its value is “N.B”.

And the Kd (moesin FERM domain [1]; [4])?
The Kd was 1000 ± 100 nM.

TNGYYSVNTFKEHHST was tested. Which Kd (moesin FERM domain [1]; [4]) did it give?
Its Kd is 100 ± 10 nM.

With LEFADAYDFRSSYPDH as the substance, how does the Kd (moesin FERM domain [1]; [5]) read?
Its Kd is 85000 ± 2000 nM.

For LEFADFYAFRSSYPDH, which Kd (moesin FERM domain [1]; [5]) is on record?
Its Kd is 50000 ± 2000 nM.

How did the Kd (radixin FERM domain) turn out when LYTLPDDSTHQLLQPH [BOC1000–1015] was run?
Its Kd is 17000 ± 2000 nM.

TNGAYSVNTFKEHHST was tested. Which Kd (moesin FERM domain [1]; [4]) did it give?
The Kd was 110 ± 10 nM.

With “THHKALQEIRNSLLPF [LATS1_73–88, reference compound]” as the substance, how does the Kd (moesin FERM M285A/H288A) read?
The Kd was 1300 ± 100 nM.

What about the Kd (moesin FERM domain [2]) of the same substance?
Its Kd is 1000 ± 100 nM.

Which Kd (moesin FERM domain [1]; [4]) does the source give for TNGYASVNTFKEHHST here?
The Kd was 58000 ± 5000 nM.

LEFADFYDFRSSAPDH was tested. Which Kd (moesin FERM domain [1]; [5]) did it give?
Its Kd is 2800 ± 100 nM.

TNGYYSANTFKEHHST was tested. Which Kd (moesin FERM domain [1]; [4]) did it give?
Its Kd is 50000 ± 6000 nM.

Which Kd (moesin FERM M285A/H288A) does the source give for LEFADFYDFRSSYPDH [ZNF622_341–356] here?
Its Kd is 1300 ± 100 nM.

What about the Kd (moesin FERM domain [2]) of the same substance?
Its Kd is 1000 ± 100 nM.

What about the Kd (moesin FERM domain [1]; [5]) of the same substance?
Its Kd is 1400 ± 100 nM.

And the Kd (moesin FERM domain [3]; [6])?
Its Kd is 1400 ± 100 nM.

What about the Kd (moesin FERM domain [3]; [7]) of the same substance?
The Kd was 1300 ± 200 nM.

What does the source list for “KIRREL3_634–652: unlabeled F3b ligand used at 80 μM as saturating competitor; residue range as printed (TNGYYSVNTFKEHHSTPTI)”?
effect of excess unlabeled peptide on binding of FITC-EBP50 / FITC-ZNF622 to the F3a site (moesin FERM domain [3]; [8]): not binding; effect of excess unlabeled peptide on binding of FITC-KIRREL3 / FITC-TBX4 to the F3b site (moesin FERM domain [3]; [8]): blocked binding

Which Kd (moesin FERM domain [1]; read-out: moesin KD′) does the source give for ITGSYSVSESPFFSPI [MISP595–610] here?
Its Kd is 2300 ± 100 nM.

How did the Kd (moesin FERM domain [1]; [5]) turn out when LEAADFYDFRSSYPDH was run?
Its Kd is 2300 ± 100 nM.

How did the “KD, merlin FERM domain” value (merlin FERM domain) turn out when YYSVNTFKEHHSTPTI [KIRREL3_637–652] was run?
Its value is “N.B”.

For FYELAHQLPLPHNVSS [HIF1A37–52], which Kd (moesin FERM domain [1]; competition FP, determined using FITC-ZNF622 as the probe peptide (footnote b), read-out: moesin KD′) is on record?
Its Kd is 3000 ± 400 nM.

“APQMDWSKKNELFSNL [EBP50_343–358, reference compound]” was tested. Which Kd (moesin FERM domain [2]) did it give?
The Kd was 3000 ± 300 nM.

What about the Kd (moesin FERM domain [3]; [6]) of the same substance?
The Kd was 3300 ± 200 nM.

And the Kd (moesin FERM domain [3]; [7])?
The Kd was 3400 ± 200 nM.
